Laboratory results: patent US20130330422A1, “METHODS FOR INCREASING INSULIN SENSITIVITY AND TREATING DIABETES WITH A BIOACTIVE CHROMIUM BINDING PEPTIDE” (The Board of Trustees of the University of Alabama, priority 2012, published 2013)
Non-standard residues stand in square brackets, D forms with d. No end group written: not given here. pGlu = O=C1CC[C@@H](C(=O)O)N1

What was measured:
[1] = tested on: Akt; assay: Insulin-stimulated phosphorylation of Akt in cultured myotubes (Western blot); assay type: cell-based; settings: peptide and/or chromium (1 μM) 1 h, insulin 5 nm
Protocol: Myotubes were incubated with the peptide and/or chromium (1 μM) for 1 h and stimulated with insulin 5 nm. (A) Representative Western blots of p^308-Akt and Akt, and (B) Densitometric quantitation of the Western blots. Data represent mean±SE (n=3), *p<0.001 versus control **p<0.01 compared to insulin-stimulated glucose uptake (panel A). *p<0.001 versus control ^#p<0.05 compared to insulin-stimulated glucose uptake in untreated cells (panel B).

[2] = Insulin-stimulated glucose uptake in vivo, tail-vein peptide then intraperitoneal glucose; settings: peptide 5 μmol/kg alone or premixed with equimolar chromium via tail-vein; glucose 2 g/kg intraperitoneally
Protocol: The peptide (5 μmol/kg) either alone or premixed with equimolar concentrations of chromium were injected via tail-vein, immediately following which glucose (2 g/kg body weight) was administered intraperitoneally (*p<0.05, n=6-8).

[3] = tested on: cultured myotubes; assay: Insulin-stimulated 2-[3H]-deoxyglucose uptake in cultured myotubes; assay type: cell-based; settings: peptide 10 mM and/or chromium 1 h, insulin 50 nM 10 min; 10 mM or 25 mM glucose overnight
Protocol: Myotubes were incubated with the peptide (10 mM) and/or chromium for 1 h and stimulated with insulin (50 nM) for 10 min, and 2-[^3H]-deoxyglucose uptake was assessed. Data represent mean counts per minute (cpm)/mg protein/30 min±SE (n=3). *p<0.01 compared to basal low glucose conditions. **p<0.01 compared to insulin-stimulated low glucose conditions. ***p<0.001 compared to high glucose conditions.

[4] = Chromium binding studies: ultrafiltration equilibrium dialysis with 51CrCl3, Langmuir isotherms and Hill plots; settings: for Langmuir parameter Bt / Langmuir parameter K: Cr^3+ binding, 0.1 mol/L Hepes pH 7.4, 4° C.; for Co-operativity / Kf (Hill plot binding of formation constant) / n (Hill constant): chromium(III) binding, Hill plot; for chromium:oligopeptide ratio at the intersection point of the Langmuir isotherm (number of tightly binding ions): estimated from Langmuir isotherm
Protocol: A variation of the equilibrium dialysis method using an ultrafiltration device was utilized to examine the binding of chromium to the synthetic peptides. Aliquots of a mixture of CrCl3 and ^51CrCl3 were combined to generate different concentrations of Cr(III) while maintaining the synthetic peptide in solution at a constant volume. Known amounts (approximately 0.46 μmol) of peptide and 200 mL of 0.1 mol/L Hepes buffer (pH 7.4) were slowly stirred in an Amicon 8400 ultrafiltration unit (with a YC05 membrane) at 4° C. temperature for at least 12 h to achieve equilibration. The ultrafiltration unit was then pressurized, and effluent was collected. The content of free chromic ion in the effluent was determined by gamma counting using a Packard Cobra II auto-gamma counter. Chromium binding experiments were performed in triplicate, and the synthetic peptide used in at least one of the three sets of triplicates was from a different synthesis. As a control for the chromium-binding experiments, the ultrafiltration procedure was performed without peptide to establish the amount of chromium that adhered to the ultrafiltration unit; all experiments were corrected for this background. Linear regression analyses of the Langmuir isotherms and Hill plots were performed using SigmaPlot 11.0. The Cr concentration of solutions of isolated peptides were determined by graphite furnace atomic absorption spectroscopy using a PerkinElmer Analyst 400 atomic absorption spectrometer equipped with an HGA-900 graphite furnace and an AS-800 autosampler using a chromium hollow cathode lamp operating at 10 mA; a spectral bandwidth of 0.8 nm was selected to isolate the light at 353.7 nm. Chromium standard solution obtained from Perkin Elmer (Waltham, Mass.) was utilized to generate a standard curve.
Errors are presented throughout as standard deviations of the triplicate analyses. Doubly deionized H2O was used throughout. Amino acid analyses of samples were performed by the Protein and Separation Analysis Laboratory at Purdue University. Protein concentrations were determined by the fluorescamine method (Davis et al. “Isolation and characterization of a biologically active form of chromium oligopeptide from bovine liver,” Arch Biochem Biophys. 1997; 339:335-343.) Fluorescence measurements were obtained on a Jobin Yvon FluoroMax-3 fluorescence spectrophotometer. Ultraviolet-visible spectra were obtained using a Hewlett-Packard 8451A or a Beckman Coulter DU 800 spectrophotometer.
As chromium binding to the oligopeptide LMWCr is believed to be through only carboxylate residues and the heptapeptide pEEEEGDD (SEQ ID NO: 1) retains all the aspartate and glutamate residues in LMWCr, whether the heptapeptide can bind chromium in a similar fashion to LMWCr was investigated. The binding of chromium to bovine apoLMWCr prepared by the low pH EDTA method (Davis and Vincent), the heptapeptide pEEEEGDD (SEQ ID NO: 1), and two other acidic peptides was probed. […] The number of Cr^3+ ions binding to the peptides was estimated using Langmuir isotherms. For the Langmuir isotherms of Cr^3+ binding to all the synthetic peptides, Cr binding to apoLMWCr can be represented by two intersecting straight lines with different slopes (FIG. 5)). […] Negative values of the Langmuir parameters Bt and K were found for each peptide: apoLMWCr, −2.69 mmol/g and −109 L/mmol, respectively; EDGEECDCGE (SEQ ID NO: 41), −6.97 mmol/g and −354 L/mmol; DGEECDCGEE (SEQ ID NO: 42), −62.9 mmol/g and −9.94 L/mmol; and pEEEEGDD (SEQ ID NO: 1), −0.73 mmol/g and −151 L/mmol.
To further compare the binding properties between the synthetic peptides and apoLMWCr in CrCl3 solution, the method of Hill was applied to establish the degree of cooperativity between the covalent binding sites with the initial low amounts of substrate in solution, assuming covalent binding sites are occupied before surface adsorption occurs. The total number of tight binding sites established using the Langmuir isotherm was utilized. […]

[5] = Cr:peptide binding ratio after exposure to 10 equivalents of Cr^3+ and G-10 size exclusion chromatography; settings: 0.1 mol/L hepes pH 7.4, overnight at 4° C., G-10 separation
Text: The intersection points in the isotherms allow the number of tightly binding ions to be estimated. For bovine apoLMWCr, the chromium:oligopeptide ratio at the intersection point is 3.6, which is very close to the average amount of chromium bound to isolated bovine LMWCr, which is 3.5. Titration of bovine LMWCr with Cr^3+ has previously shown that four Cr^3+ ions are required to restore bioactivity. For the synthetic peptides, the intersection points occurred at Cr:peptide ratios of approximately 2, 2, and 4 for EDGEECDCGE (SEQ ID NO: 41), DGEECDCGEE (SEQ ID NO: 42) and pEEEEGDD (SEQ ID NO: 1) (FIG. 6), respectively. This is consistent with the Crpeptides binding ratios found after exposing the peptides to solutions of 10 equivalents of Cr^3+ (CrCl3.6H2O in 0.1 mol/L hepes buffer, pH 7.4 overnight at 4° C.) and separating the peptides from the excess Cr^3+ by G-10 size exclusion chromatography (EDGEECDCGE (SEQ ID NO: 41): 2.0(±0.3), and DGEECDCGEE (SEQ ID NO: 42): 2.0±0.3). A change in mode from specific coordinate covalent binding to just electrostatic absorption on the peptide surface is proposed. Thus, the inflection point of the isotherm for the peptide pEEEEGDD (SEQ ID NO: 1) implies that it tightly binds four Cr^3+ ions. […] The two visible features are readily assigned to d→d transitions from the Cr^3+ centers. […]

| Langmuir parameter Bt [4] [mmol/g] | Langmuir parameter K [4] [L/mmol] | Co-operativity [4] | Kf (Hill plot binding of formation constant) [4] | n (Hill constant) [4] | chromium:oligopeptide ratio at the intersection point of the Langmuir isotherm (number of tightly binding ions) [4] | Cr:peptide binding ratio [5] | Substance | insulin-stimulated phosphorylation of Akt (p308-Akt) [1] | insulin-stimulated glucose uptake in vivo [2] | insulin-stimulated glucose uptake in cultured myotubes [3] |
| --- | --- | --- | --- | --- | --- | --- | --- | --- | --- | --- |
| – | – | – | – | – | – | – | EEEEGDD | improves insulin-stimulated phosphorylation of Akt | augments insulin-stimulated glucose uptake in vivo | augments insulin-stimulated glucose uptake |
| -0.73 | -151 | Positively co-operative | 1.92 × 10^20 (mol/L)^−4 | 3.82 | ~4 | – | [pGlu]EEEGDD | – | – | – |
| -62.9 | -9.94 | Positively co-operative | 1.01 × 10^11 (mol/L)^−2 | 1.85 | approximately 2 | 2.0±0.3 | DGEECDCGEE [synthetic acidic peptide with the same amino acid composition as bovine LMWCr] | – | – | – |
| -6.97 | -354 | Positively co-operative | 1.48 × 10^23 (mol/L)^−2 | 3.64 | approximately 2 | 2.0(±0.3) | EDGEECDCGE [synthetic acidic peptide with the same amino acid composition as bovine LMWCr] | – | – | – |
